Experimental data from patent EP4420661B1, “SMALL MOLECULES TARGETING GLYCOPROTEIN VI AS ANTIPLATELET AGENTS FOR USE IN THE PREVENTION AND/OR TREATMENT OF THROMBOSIS AND ASSOCIATED PATHOLOGIES” (Universidade de Santiago de Compostela, priority 2023, dated 2024).
Values after ≈ are worked out from the molar mass of the structure shown.

Tests used:
[1] = metabolic stability, rat microsomes; assay type: in vitro ADME; details: Rat microsomes
Description: (§1) Microsomes from Tebu-bio Xenotech were employed in the assay, having a content of 20 mg/ml of protein. The following quantities were added to each well of a 96-well microplate. Table 6: Metabolic stability assay.
(§2) Plates were incubated at 37°C and 75 µL samples were taken at 0, 10, 20, 40 and 60 minutes.
(§3) Samples were transferred to a microplate and 75 µl Acetonitrile + IS(Rolipram) were added for inactivating the microsomes, and 30 µl of H2O with 0.5% formic acid for improving the chromatographic conditions and kept at 4°C. When all the samples were taken the plate was centrifuged at […] for 30 min at 15°C. Stationary phase: ACQUITY BEH C18 1.7µm 2.1x50mm (Waters) Mobile phase: A: 0.1% formic; B: acetonitrile+0.1% formic acid Gradient: Table 6: UPLC gradient / Metabolic stability assay
(§4) Metabolic stability was calculated from the logarithm of the remaining compound at each of the times evaluated.

CYP3A4 = molecular target: T1, CYP3A4 (Homo sapiens, UniProt P08684); experiment: CYP inhibition, liver microsomes, substrate cocktail; assay type: in vitro ADME; details: for inhibition at 25 min, 10 µM: human, liver microsomes
T1 construct: 0.5 mg protein/mL of liver microsomes (HLM Xenotech); tissue Xenotech; host or cells: liver microsomes
Description: (§5) Cytochrome P450 (CYP) are a family of enzymes which play a major role in the metabolism of drugs. Assessment of the potential of a compound to inhibit a specific cytochrome P450 enzyme is important as co-administration of compounds may result in one or both inhibiting the other's metabolism.
(§6) All the incubations were performed in 250 µL reaction medium containing sodium/potassium phosphate buffer 50mM, pH 7.4, 3mM MgCl2, an NADPH regeneration system 1mM NADP, 10mM glucose 6-phosphate, and 1 U/mL glucose 6-phosphate dehydrogenase, 0.5 mg protein/mL of liver microsomes (HLM Xenotech), and a substrate cocktail composed of phenacetin for CYP1A2, diclofenac for CYP2C9, S-mephenytoin for CYP2C19, bufuralol for CYP2D6, midazolam for CYP3A4, and testosterone for CYP3A4. Final concentrations of substrate in the reaction medium were: 10 µM phenacetin, 10 µM diclofenac, 5 µM bufuralol, 100µM S-Mephenytoin, 5 µM midazolam, and 50 µM testosterone. Following incubation at 37°C for 25 min, the reactions were terminated by the addition of ice-cold acetonitrile and the plate was centrifuged at 4000 g for 60 min at 4°C.
(§7) Supernatant was taken and analyzed by UPLC/MS/MS for sample quantification The chromatographic equipment employed was an UPLC QSM Waters Acquity. Stationary phase: Reverse phase Acquity UPLC® BEHC18 1,7 µm (2.1 mm x 100 mm) (Waters) Mobile phase: 0.1% Formic acid water/0.1% formic acid in acetonitrile. Flow: 0.8 ml/min. Gradient: Table 10: UPLC gradient / CYP inhibition assay

CYP2D6 = molecular target: T2, CYP2D6 (Homo sapiens, UniProt P10635); experiment: as above; assay type: in vitro ADME
T2 construct: 0.5 mg protein/mL of liver microsomes (HLM Xenotech); tissue Xenotech; host or cells: liver microsomes
Description: as §5, §6, §7

[2] = plasma protein binding, Rapid Equilibrium Dialysis (RED), dog; assay type: in vitro ADME; details: 4h at 37°C
Description: (§8) Plasma from Seralab was employed in the assay and was carried out by employing Rapid Equilibrium Dialysis (RED) from Thermo Scientific.
(§9) The compounds were dissolved at 5 µM in plasma and added to the corresponding insert of the RED device. Dialysis buffer was added to the corresponding insert of the RED device. Plate was incubated for 4h at 37°C.
(§10) After the incubation period 50 µL aliquots of each chamber were transferred to empty vials. 50 µL of dialysis buffer were added to the plasma samples and 50 µL of plasma were added to the buffer samples. 300 µL of acetonitrile were added to all the samples and centrifuged at 4000 rpm 100 µL aliquots of the supernatants were transferred to a LC analysis plate. Samples were analyzed in a UPLC/MS/MS. Stationary phase: Acquity UPLC® BEHC18 1,7 µm (2.1 mm x 50 mm) (Waters). Gradient: A (H2O + 0.1% Formic acid); B (ACN + 0.1% Formic acid); Flow: 0.6mL/min Table 8: UPLC gradient / Protein binding assay
(§11) The chromatographic equipment employed was an ACQUITY UPLC / Xevo TQD System. Compound concentrations were calculated from the MS peak areas. Table 9: Plasma protein binding of the compounds of formula (I) in rat, mice, dogs and humans / (*) low recovery

Plasma protein [3] = experiment: as above; assay type: in vitro ADME; details: 5 µM, 4h at 37°C
Description: as §8, §9, §10, §11

[4] = plasmatic stability, human plasma; assay type: in vitro ADME; details: for Plasmatic stability: Human plasma
Description: (§12) Rat, human, mouse and dog plasma pooled from healthy donors extracted in citrate tubes was employed in the assay.
(§13) […] Then 300µl Acetonitrile were added for precipitating plasma protein, and the plate was centrifuged at 4000 g for 60 min at 4°C.
(§14) Supernatant was taken and analyzed by UPLC/MS/MS for sample quantification. Stationary phase: Reverse phase ACQUITY BEH C18 1.7µm 2.1x50mm (Waters) Mobile phase: 0.1% Formic acid water/0.1% formic acid in acetonitrile Gradient: Table 4: UPLC gradient / Plasmatic stability assay
(§15) The chromatographic equipment employed was an UPLC QSM Waters Acquity. Compound concentrations were calculated from the MS peak areas.

[5] = metabolic stability, dog microsomes; assay type: in vitro ADME; details: Dog microsomes
Description: as §1, §2, §3, §4

[6] = plasmatic stability, dog plasma; assay type: in vitro ADME
Description: as §12, §13, §14, §15

[7] = metabolic stability, mouse microsomes; assay type: in vitro ADME
Description: Samples were transferred to a microplate and 75 µl Acetonitrile + IS(Rolipram) were added for inactivating the microsomes, and 30 µl of H2O with 0.5% formic acid for improving the chromatographic conditions and kept at 4°C. When all the samples were taken the plate was centrifuged at 46000 g for 30 min at 15°C. Stationary phase: ACQUITY BEH C18 1.7µm 2.1x50mm (Waters) Mobile phase: A: 0.1% formic; B: acetonitrile+0.1% formic acid Gradient: Table 6: UPLC gradient / Metabolic stability assay

[8] = plasma protein binding, Rapid Equilibrium Dialysis (RED), rat; assay type: in vitro ADME; details: 4h at 37°C
Description: as §8, §9, §10, §11

Plasma protein [9] = experiment: as above; assay type: in vitro ADME; details: 5 µM, 4h at 37°C
Description: as §8, §9, §10, §11

[10] = solubility by nephelometry; details: 1% dmso/pbs, 37 °C, aqueous buffer, kinetic from dmso stock
Description: Solubility was determined by nephelometry to assess its potential impact on the bioassays at active concentrations.
Then, said compounds were incubated for 2 hours at 37°C and read in a NEPHELOstar Plus (BMG LABTECH).

T1 sequence (P08684 whole entry): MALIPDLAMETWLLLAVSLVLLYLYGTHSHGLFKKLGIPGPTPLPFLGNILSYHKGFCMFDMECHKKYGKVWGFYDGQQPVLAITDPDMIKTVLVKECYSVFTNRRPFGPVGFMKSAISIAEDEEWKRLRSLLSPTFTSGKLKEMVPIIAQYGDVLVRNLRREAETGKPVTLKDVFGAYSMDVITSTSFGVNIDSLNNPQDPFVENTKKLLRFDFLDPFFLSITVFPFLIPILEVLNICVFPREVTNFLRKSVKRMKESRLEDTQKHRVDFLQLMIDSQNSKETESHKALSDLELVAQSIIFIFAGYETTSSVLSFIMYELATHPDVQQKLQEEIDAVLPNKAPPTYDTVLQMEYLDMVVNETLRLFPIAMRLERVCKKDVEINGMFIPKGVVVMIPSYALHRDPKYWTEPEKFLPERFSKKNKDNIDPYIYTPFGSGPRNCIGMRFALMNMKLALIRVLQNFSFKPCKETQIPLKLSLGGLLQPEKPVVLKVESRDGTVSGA
T2 sequence (P10635 whole entry): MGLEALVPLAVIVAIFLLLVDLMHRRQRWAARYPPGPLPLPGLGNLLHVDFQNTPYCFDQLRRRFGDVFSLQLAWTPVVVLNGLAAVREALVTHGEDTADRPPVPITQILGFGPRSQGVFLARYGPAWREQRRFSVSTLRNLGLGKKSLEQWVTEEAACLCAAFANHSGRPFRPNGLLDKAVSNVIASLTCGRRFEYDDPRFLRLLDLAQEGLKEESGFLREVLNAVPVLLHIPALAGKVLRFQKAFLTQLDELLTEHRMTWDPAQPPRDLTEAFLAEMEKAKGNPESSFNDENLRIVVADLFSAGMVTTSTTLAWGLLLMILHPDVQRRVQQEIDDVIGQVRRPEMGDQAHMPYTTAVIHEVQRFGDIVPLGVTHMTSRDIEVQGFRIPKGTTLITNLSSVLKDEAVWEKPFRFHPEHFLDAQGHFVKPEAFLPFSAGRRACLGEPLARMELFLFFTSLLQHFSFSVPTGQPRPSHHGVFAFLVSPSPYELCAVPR

For `O=C(Cc1ccc2c(c1)OCCO2)Nc1nc(-c2ccc3c(c2)CCC(=O)N3)cs1` [Compound (If)], the half-life [1] was 1.03 h, the microsomal CLint [1] was 8.89 µL/min/mg and the “% remanent (*)” value ([1]; (*) sampling time 60 min) was 49.9%. The IC50 (CYP3A4; CYP3A4 (Midazolam)) was > 10 µM, the IC50 (CYP3A4; CYP3A4 (Testosterone), 25 min) was > 10 µM and the inhibition at 25 min, 10 µM (CYP3A4; pH 7.4, CYP3A4 (Midazolam)) was -9.4%. For the same compound, the inhibition at 25 min, 10 µM (CYP3A4; pH 7.4, CYP3A4 (Testosterone)) was -12.8%, the IC50 (CYP2D6; CYP2D6, substrate bufuralol) was > 10 µM and the inhibition at 25 min, 10 µM (CYP2D6; human, liver microsomes, pH 7.4, CYP2D6, 10µM, substrate bufuralol) was -2.9%. The fraction unbound at 4 h, 5 µM [2] was 0.0015, the Unbound fraction (Plasma protein [3]) was 0.15% and the Plasmatic stability ([4]; 10µM, t 0 min) was 100.0. The Plasmatic stability ([4]; 10µM, t 60 min) was 101.0, the Plasmatic stability ([4]; 10µM, t 120 min) was 101.7 and the Plasmatic stability ([4]; 10µM, t 360 min) was 101.4. It also gave a Plasmatic stability ([4]; 100µM, t 0 min) of 100.0, a Plasmatic stability ([4]; 100µM, t 60 min) of 104.3 and a Plasmatic stability ([4]; 100µM, t 120 min) of 107.4. The Plasmatic stability ([4]; 100µM, t 360 min) was 106.4, the “plasmatic stability (in words)” value ([4]; human) was “high plasmatic stability” and the half-life [5] was 5.42 h. For the same compound, the microsomal CLint [5] was 2.17 µL/min/mg, the “% remanent (*)” value ([5]; (*) sampling time 60 min) was 89.2% and the Plasmatic stability ([6]; 10µM, t 0 min) was 100.0. The Plasmatic stability ([6]; 10µM, t 60 min) was 89.2, the Plasmatic stability ([6]; 10µM, t 120 min) was 85.1 and the Plasmatic stability ([6]; 10µM, t 360 min) was 83.5. For the same compound, the Plasmatic stability ([6]; 100µM, t 0 min) was 100.0, the Plasmatic stability ([6]; 100µM, t 60 min) was 101.4 and the Plasmatic stability ([6]; 100µM, t 120 min) was 106.5. For the same compound, the Plasmatic stability ([6]; 100µM, t 360 min) was 102.4, the half-life [7] was 1.82 h and the microsomal CLint [7] was 7.09 µL/min/mg. The “% remanent (*)” value ([7]; (*) sampling time 60 min) was 71.6%, the fraction unbound at 4 h, 5 µM [8] was 0.001 and the Unbound fraction (Plasma protein [9]) was 0.10%. The solubility at 2 h [10] was 61.5 µM (≈ 25.9 µg/mL).
